According to PubChem BioAssay AID2202554 (NIEHS Division of Translational Toxicology (DTT)):
Records with an inconclusive call do not appear. Activity calls are given as the source filed them. The rule behind the calls is not given here.

These compounds were tested on S. typhimurium/E. coli reverse mutation, colony counts (assay: Bacterial reverse mutation test (aka Ames test) summary data).
Method in brief: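 Revertant colony counts on plates, compared with untreated controls, after about two days of growth. Exposure with or without liver S9 (rat/hamster/mouse), dose range per strain, 20-min 37° C preincubation or direct plate incorporation. Strains: his⁻ Salmonella, trp⁻ E. coli WP2 uvrA pKM101.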
For `O=C(OCC(COC(=O)c1ccccc1)(COC(=O)c1ccccc1)COC(=O)c1ccccc1)c1ccccc1`, the outcome was “inactive; negative”.
With `CC(=O)c1ccncc1` the outcome was “inactive; negative”.
For `Nc1ccc([N+](=O)[O-])cc1N`, the outcome was “active; positive”.
`COc1cccc2sc(N)nc12` was tested, and the outcome was “active; positive”.
In the case of `Nc1cccc(O)c1`, the outcome is reported as “active; positive”.
`CC(=O)Nc1ccc(O)cc1` was tested, and the outcome was “inactive; negative”.
For `Cc1ccc2nc(-c3ccc(N)cc3)sc2c1S(=O)(=O)O`, the outcome was “active; positive”.
For `O=C1C(c2[nH]c3ccccc3c2O)=Nc2ccccc21`, the outcome was “active; positive”.
In the case of `CCOc1ccc(N=Nc2ccc(-c3ccc(N=Nc4c(O)ccc5cc(S(=O)(=O)O)cc(S(=O)(=O)O)c45)c(C)c3)cc2C)cc1`, the outcome is reported as “inactive; negative”.
With `O=C1C2(Cl)C3(Cl)C4(Cl)C(Cl)(Cl)C5(Cl)C3(Cl)C1(Cl)C5(Cl)C24Cl` (stereo not drawn) the outcome was “inactive; negative”.
With `C[C@](N)(Cc1ccc(O)c(O)c1)C(=O)O` the outcome was “inactive; negative”.
With `FC(Cl)(Cl)C(F)(Cl)Cl` the outcome was “active; weakly positive”.
With `CCCCOB(OCCCC)OCCCC` the outcome was “inactive; negative”.
`Clc1cccc(C(Cl)(Cl)Cl)n1` was tested, and the outcome was “active; positive”.
`CCCCCCCCC(=O)O` was tested, and the outcome was “inactive; negative”.
In the case of `CCNc1nc(Cl)nc(NC(C)C)n1`, the outcome is reported as “inactive; negative”.
For `C=CC1CC=CCC1` (stereo not drawn), the outcome was “inactive; negative”.
`Cc1c(O)c(Br)c(Br)c(Br)c1Br` was tested, and the outcome was “inactive; negative”.
In the case of `C=CCOC(=O)c1ccccc1N`, the outcome is reported as “inactive; negative”.
`CC(=O)Nc1cccc(N)c1` was tested, and the outcome was “active; positive”.
In the case of `O=Cc1ccc(CO)o1`, the outcome is reported as “active; weakly positive”.
`ClC(Cl)Cl` was tested, and the outcome was “inactive; negative”.
`CCC(=O)C=CC1C(C)=CCCC1(C)C` (stereo not drawn) was tested, and the outcome was “inactive; negative”.
For `OCC(O)CCl` (stereo not drawn), the outcome was “active; positive”.
For `O=C=Nc1ccc(Cc2ccc(N=C=O)cc2)cc1`, the outcome was “inactive; negative”.
In the case of `CCN(CC)CCN1C(=O)CN=C(c2ccccc2F)c2cc(Cl)ccc21`, the outcome is reported as “inactive; negative”.
For `C1=CCCC=CCC1.C1=CCCC=CCC1.[Ni]`, the outcome was “active; positive”.
With `O=C1O[C@H]([C@@H](O)CO)C(O)=C1O` the outcome was “active; weakly positive”.
`N#CC(Cl)Cl` was tested, and the outcome was “active; positive”.
In the case of `Cc1ccccc1C(OCCN(C)C)c1ccccc1` (stereo not drawn), the outcome is reported as “inactive; negative”.
For `CC(=O)Nc1ccc(N=Nc2cc(C)ccc2O)cc1`, the outcome was “active; positive”.
With `CC[Si](Cl)(Cl)CC` the outcome was “inactive; negative”.
With `CCN(CC)CCO` the outcome was “inactive; negative”.
With `COc1cc([N+](=O)[O-])ccc1N=NC(C(C)=O)C(=O)Nc1ccccc1OC` (stereo not drawn) the outcome was “inactive; negative”.
For `Cc1ccc2c(C)cccc2c1`, the outcome was “inactive; negative”.
For `Cc1cnc[nH]1`, the outcome was “inactive; negative”.
With `N#CSCSc1nc2ccccc2s1` the outcome was “active; positive”.
With `O=[N+]([O-])c1cccc2c([N+](=O)[O-])cccc12` the outcome was “active; positive”.
`CCOCCOCC` was tested, and the outcome was “active; positive”.
In the case of `Cc1cc(C(=O)O)ccc1[N+](=O)[O-]`, the outcome is reported as “active; positive”.
In the case of `CCCCOC(=O)c1ccc(N)cc1`, the outcome is reported as “inactive; negative”.
For `CN(C)c1ccc(N=Nc2ccccc2)cc1`, the outcome was “active; positive”.
With `COc1ccc(OC)cc1` the outcome was “inactive; negative”.
In the case of `CCCCCCCCCCCC(C)=O`, the outcome is reported as “inactive; negative”.
In the case of `Cc1occc(=O)c1O`, the outcome is reported as “active; weakly positive”.
In the case of `CCc1cccc(C)c1N`, the outcome is reported as “inactive; negative”.
With `CCN(Cc1cccc(S(=O)(=O)[O-])c1)c1ccc(C(=C2C=CC(=[N+](C)C)C=C2)c2ccc(N(CC)Cc3cccc(S(=O)(=O)O)c3)cc2)cc1` the outcome was “active; positive”.
With `Cc1cccc2cccnc12` the outcome was “active; positive”.
`ClC(Br)Br` was tested, and the outcome was “active; weakly positive”.
With `C=CCNC(N)=O` the outcome was “active; positive”.
With `C=CCNC(=S)NCC=C` the outcome was “inactive; negative”.
With `C=CCOC(=O)CC(C)C` the outcome was “inactive; negative”.
`CC(=O)O[C@]1(C(C)=O)CC[C@H]2[C@@H]3C[C@H](C)C4=CC(=O)CC[C@]4(C)[C@H]3CC[C@@]21C` was tested, and the outcome was “inactive; negative”.
For `CC1=NN(c2ccccc2)C(=O)C1`, the outcome was “inactive; negative”.
With `O=S(O)c1ccc(Cl)cc1` the outcome was “inactive; negative”.
`c1ccc2c(c1)oc1ccccc12` was tested, and the outcome was “inactive; negative”.
`OC[P+](CO)(CO)CO` was tested, and the outcome was “inactive; negative”.
For `FC(F)(F)c1ccccc1Cl`, the outcome was “inactive; negative”.
`O=NO` was tested, and the outcome was “active; positive”.
`COP(=S)(OC)Oc1ccc(SC)c(C)c1` was tested, and the outcome was “active; weakly positive”.
`Nc1ccccc1Cl` was tested, and the outcome was “inactive; negative”.
`CCCCOCCOCCOCc1cc2c(cc1CCC)OCO2` was tested, and the outcome was “inactive; negative”.
In the case of `COc1cc(-c2ccc(N=Nc3cc(S(=O)(=O)O)c4ccccc4c3O)c(OC)c2)ccc1N=Nc1cc(S(=O)(=O)O)c2ccccc2c1N`, the outcome is reported as “inactive; negative”.
With `CC(C)[C@]12CC(=O)[C@H](C)[C@H]1C2` the outcome was “inactive; negative”.
For `CCOc1ccc(NC(C)=O)cc1`, the outcome was “inactive; negative”.
`Cc1cc(=O)oc2cc(O)ccc12` was tested, and the outcome was “inactive; negative”.
For `Nc1ccc(N)c2ccccc12`, the outcome was “active; positive”.
In the case of `O=C(O)/C=C\C(=O)O`, the outcome is reported as “inactive; negative”.
In the case of `CCC(C)(C)C`, the outcome is reported as “inactive; negative”.
For `CN(C)c1cccc(O)c1`, the outcome was “active; positive”.
`O=C1c2ccccc2-c2ccc3c4ccc5c6c(ccc(c7ccc1c2c73)c64)C(=O)c1ccccc1-5` was tested, and the outcome was “active; weakly positive”.
With `Cc1ccc(Br)cc1` the outcome was “inactive; negative”.
With `CCN(CC)c1ccc([N+](=O)[O-])cc1` the outcome was “active; positive”.
`CC(C)CON=O` was tested, and the outcome was “active; positive”.
In the case of `c1ccc2[nH]cnc2c1`, the outcome is reported as “inactive; negative”.
`Cc1noc(NS(=O)(=O)c2ccc(N)cc2)c1C` was tested, and the outcome was “inactive; negative”.
In the case of `Clc1c(Cl)c(Cl)c2c(c1Cl)Oc1c(Cl)c(Cl)c(Cl)c(Cl)c1O2`, the outcome is reported as “inactive; negative”.
With `CC(=O)c1nccs1` the outcome was “inactive; negative”.
For `CCCCCCCC/C=C\CCCCCCCC(=O)O` (tested in a mixture with another compound), the outcome was “inactive; negative”.
With `O=C(O)C=Cc1ccc(C=CC(=O)O)cc1` the outcome was “inactive; negative”.
With `Nc1ccc(O)c(C(=O)O)c1` the outcome was “inactive; negative”.
In the case of `CCC(C)C`, the outcome is reported as “inactive; negative”.
For `CCCCCCCCCCCCOS(=O)(=O)O`, the outcome was “inactive; negative”.
With `C=CC#N` the outcome was “active; positive”.
In the case of `CCNc1ccc([N+](=O)[O-])cc1C`, the outcome is reported as “active; positive”.
With `Cc1ccc(N=Nc2c(O)c(S(=O)(=O)O)cc3ccc(S(=O)(=O)O)cc23)c(C)c1` the outcome was “active; weakly positive”.
`CCCCCCN` was tested, and the outcome was “inactive; negative”.
For `CCSCCC(N)C(=O)O` (stereo not drawn), the outcome was “inactive; negative”.
`NS(=O)(=O)c1cc2c(cc1Cl)NC=NS2(=O)=O` was tested, and the outcome was “inactive; negative”.
With `Nc1c(S(=O)(=O)O)cc(Nc2cccc(S(=O)(=O)CCOS(=O)(=O)O)c2)c2c1C(=O)c1ccccc1C2=O` the outcome was “active; positive”.
With `O=C1CCO1` the outcome was “active; positive”.
In the case of `Clc1ccc(Cl)c(Cl)c1`, the outcome is reported as “inactive; negative”.
`CC(C)c1ccccc1` was tested, and the outcome was “inactive; negative”.
In the case of `CC(=O)CC(=O)Nc1ccccc1`, the outcome is reported as “inactive; negative”.
With `CCBr` the outcome was “active; positive”.
With `Nc1ccc(Cl)c(N)c1` the outcome was “active; positive”.
In the case of `Oc1ccc(Cl)c(Cl)c1`, the outcome is reported as “inactive; negative”.
For `CN1C[C@H](C(=O)N[C@]2(C)O[C@@]3(O)[C@@H]4CCCN4C(=O)[C@H](Cc4ccccc4)N3C2=O)C=C2c3cccc4[nH]cc(c34)C[C@H]21`, the outcome was “inactive; negative”.
In the case of `C=C(C)C1CC=C(C)C(OC(C)=O)C1` (stereo not drawn), the outcome is reported as “inactive; negative”.
For `c1ccc(-c2ccccc2)cc1`, the outcome was “inactive; negative”.
For `O=C1C(Cl)=C(Cl)C(=O)C(Cl)=C1Cl`, the outcome was “active; positive”.
With `Oc1cccc(O)c1` the outcome was “inactive; negative”.
With `Clc1cc2c(cc1Cl)Oc1cc(Cl)c(Cl)cc1O2` the outcome was “inactive; negative”.
With `C=CCOCC1CO1` (stereo not drawn) the outcome was “active; positive”.
In the case of `Nc1nc2ccccc2[nH]1`, the outcome is reported as “inactive; negative”.
`C1COCOC1` was tested, and the outcome was “active; weakly positive”.
With `[O-][Br+2]([O-])O` the outcome was “active; positive”.
For `CC(C)OCC1CO1` (stereo not drawn), the outcome was “active; positive”.
In the case of `O=C(Nc1cccc2c(=O)c3c(ccc4c5cc(NC(=O)c6ccccc6)c6c(=O)c7ccccc7c(=O)c6c5[nH]c43)c(=O)c12)c1ccccc1`, the outcome is reported as “inactive; negative”.
In the case of `Cc1ccc([N+](=O)[O-])c(N)c1`, the outcome is reported as “inactive; negative”.
For `O=C(O)COc1cc(Cl)c(Cl)cc1Cl`, the outcome was “inactive; negative”.
In the case of `c1ccc2c(c1)Nc1ccccc1S2`, the outcome is reported as “inactive; negative”.
For `CNC[C@H](O)c1ccc(O)c(O)c1`, the outcome was “active; weakly positive”.
For `CC(C)(OO)c1ccccc1`, the outcome was “active; positive”.
With `OCc1ccccc1` the outcome was “inactive; negative”.
`Cc1ccc(C#N)cc1` was tested, and the outcome was “inactive; negative”.
With `CCCCOCCOCCO` the outcome was “inactive; negative”.
`O=NN(CCO)CCO` was tested, and the outcome was “active; positive”.
`CCOP(=O)(NC(C)C)Oc1ccc(SC)c(C)c1` (stereo not drawn) was tested, and the outcome was “inactive; negative”.
In the case of `Clc1c(Cl)c(Cl)c2ccccc2c1Cl`, the outcome is reported as “inactive; negative”.
For `CC(C)C(C)C`, the outcome was “inactive; negative”.
`Cc1ccc(N)c(C)c1` was tested, and the outcome was “active; positive”.
In the case of `CCCCCCCCC`, the outcome is reported as “inactive; negative”.
With `O=[N+]([O-])c1c2ccccc2cc2ccccc12` the outcome was “active; positive”.
In the case of `CCOC(C)(C)C`, the outcome is reported as “inactive; negative”.
For `Brc1ccc(Oc2ccc(Br)cc2Br)c(Br)c1`, the outcome was “inactive; negative”.
In the case of `O=C(Cl)c1ccccc1[N+](=O)[O-]`, the outcome is reported as “active; positive”.
With `CCCC(=O)Cl` the outcome was “active; weakly positive”.
